System: primary human chondrocytes
Assay: serum-free culture of human chondrocytes, cell proliferation
Format: cell-based
Conditions: for proliferation of cultured chondrocytes (number of cells): 4th, 7th, 14th and 21st day
Protocol: Primary human chondrocytes were isolated from a fresh sample of articular cartilage, and the sample was fractionated. The obtained fractionated sample was then immersed in a 0.1% to 0.3% collagenase solution, and subjected to enzymatic digestion at 37° C. for 4 to 5 hours. The obtained cells were collected by centrifugation for 5 minutes at 1,200 rpm. A mixture obtained by adding 100 ng/mL FGF, 0.5 μM SAG, 400 ng/mL HC, 5 ng/mL IGF, and 5 μg/mL insulin to DMEM medium was used as a culture medium. The cultured cells previously obtained were seeded at a density of 1000 cells/cm^2 and cultured in an environment of 37° C. and 5% CO2. A mixture obtained by adding 100 ng/mL FGF2, 0.5 μM SAG, 400 ng/mL HC, 5 ng/mL IGF and 5 μg/mL insulin to DMEM medium was used as a culture medium for subculture. The cultured cells in Example 1 were seeded at a density of 10000 cells/cm^2 and cultured in an environment of 37° C. and 5% CO2. In order to examine the optimum concentration of SAG added to a culture medium, the concentration of SAG in a serum-free culture medium was changed to 0.05 uM, 0.01 uM or 0.5 uM, and an influence on proliferation of cultured chondrocytes was examined. Specifically, chondrocytes prepared in the same procedure as in Example 1 were seeded at a density of 10000 cells/well, and the number of cells on the 4th, 7th, 14th and 21st day after seeding was measured. Because SAG is a very expensive reagent, it is preferred that SAG be able to be used at as low concentration as possible. […] Specifically, the concentration of SAG in a serum-free culture medium to which ITS had been added was changed to 0.01 uM, 0.05 uM, 0.1 uM or 0.5 uM, and the cultured chondrocytes were cultured, and the number of cells on the 4th, 7th, 14th and 21st day after seeding was measured. In order to further examine the effect of ITS and SAG on an increase in chondrocytes, an increase in chondrocytes was examined in treated sites to which both ITS and SAG were added (ITS+ 0.01 uM SAG, ITS+ 0.1 uM SAG), a treated site to which ITS was added alone (ITS+ SAG−), and a treated site to which ITS and SAG were not added (ITS− SAG−).

CNC1CCC(N(Cc2cccc(-c3ccncc3)c2)C(=O)c2sc3ccccc3c2Cl)CC1 (stereo not drawn) [SAG]
culture of chondrocytes (Comparative Example 1: primary culture as Example 1 but DMEM medium not containing SAG, first to 5th day, FIG. 3): chondrocytes could not be effectively cultured in the state without SAG | culture of chondrocytes (Comparative Example 2: subculture as Example 2 but DMEM medium not containing SAG, first to 13th day, FIG. 7): chondrocytes could not be effectively cultured in the state which does not contain SAG | effect on proliferation of chondrocytes (ITS+ 0.01 uM SAG, ITS+ 0.1 uM SAG, FIG. 14): an obvious effect can be obtained by combining SAG | proliferation of cultured chondrocytes (number of cells) (SAG 0.01 uM to 0.5 uM added along with ITS, FIG. 13): an increase in chondrocytes was almost equally observed | proliferation of cultured chondrocytes (number of cells) (SAG 0.05 uM, 0.01 uM or 0.5 uM in serum-free culture medium, no ITS, FIG. 12): an obvious difference which had been expected was not observed

O=C1O[C@H]([C@@H](O)CO)C(O)=C1O [ascorbic acid]
effect on culture of chondrocytes in a serum-free culture medium (Example 1: 50 μg/mL ascorbic acid added on the 18th day of culture): very effective | effect on culture of chondrocytes in a serum-free culture medium (Example 2 (subculture): 50 μg/mL ascorbic acid added on the 18th day of culture): very effective

O=C(O)c1ccccc1C(=O)Nc1ccc(-c2ccccc2)cc1 [kartogenin, 2-[(biphenyl-4-yl)carbamoyl] benzoic acid]
effect on proliferation of chondrocytes (ITS+ 1 uM Kartogenin): the effect on proliferation of chondrocytes was observed | proliferation of chondrocytes (kartogenin added in place of SAG): effective for the proliferation of chondrocytes

— patent US11427808B2, “Method for serum-free culture of chondrocytes and serum-free culture medium” (Regenesis Science Co., Ltd., priority 2014, dated 2022)
